Each block holds one compound with its values, some of them ahead of it.
Experiments:
Assay type in all cases: physicochemical
[1] = pKa measurement by capillary electrophoresis method (CE method); conditions: 25° C., pH 2.5 to 11.5 buffer
Text: (Measuring Method by Capillary Electrophoresis Method, CE Method)
It is a method by using Capillary Zone Electrophoresis technique and a method of separation by using free electrophoresis of each sample component in a buffer including electrolyte.
After injecting a compound solution to fused silica capillary filling a buffer adjusting the pH 2.5 to 11.5, high voltage (Inlet side +, Outlet side −) is on capillary, and then a compound moves at a speed reflecting an ionized state at the pH of the buffer (a compound having (+) charge moves quickly, and a compound having (−) charged moves slowly). pKas was calculated by plotting the difference between the migration time of the compound and that of a neutral molecule (DMSO) against pH, and fitting. […]

[2] = Solubility of the compound (IA) in water
[3] = Dynamic vapor sorption measurement; conditions: 25° C.
Description: Dynamic vapor sorption (DVS) is a gravimetric technique that measures how quickly and how much of water is absorbed and desorbed by a sample in several relative humidity (RH). A degree of water absorption is calculated by weight change in controlled humidity increased from 0% RH to 95% RH stepped 5% or 10%. Similarly, a degree of water desorption is calculated in humidity decreased from 95% RH to 0% RH. An absorption-desorption isotherm is obtained by plotting a value of weight change in each humidity. […] When the anhydrate crystal transforms to hydrate crystal by humidity, the results of measurement indicate transformation humidity and amount of crystal water. The dynamic vapor sorption measurement of the crystalline solid obtained in each example was carried out. The sample of about 18.0 mg was measured and transferred to a sample pan, and it was measured. The measurement condition is shown below. • Device: DVS Advantage made by Surface Measurement Systems LTD. • Measurement point: each 5% from RH95% to RH0%. • Temperature: 25° C. (Method of Measuring the Karl Fischer Method) The results of a dynamic vapor sorption measurement of the type I crystal D obtained in Example 6-1 were shown in FIG. 7 and Table 7. Dynamic vapor sorption measurement can be occurred errors within the range of ±0.5%. An increased amount of water (%) represents an increased amount of the type I crystal at 0% RH.

[4] = Solid stability test of crystalline solid; conditions: −20±5° C. or 5±5° C., light shielding, double polyethylene bag in metal can, 0, 3, 6, 9, 12 months
Description: The type I crystal D about 1 g was put in a polyethylene bag and tightened with a convex. This bag was further put in a polyethylene bag and tightened with a convex in the same way. The above sample of the same storage conditions was put together in a metal can as a stability evaluation sample. The storage conditions, storage period and test items are as follows.
• Temperature: −20±5° C. or 5±5° C. • Light shielding • Package form: double polyethylene bag, convex, metal can • Storage period: 0, 3, 6, 9, 12 months (Measurement)
Using the type I crystal D stored at the above storage conditions and storage period, after viewing the change in appearance, the contents of the compound (IA) and the related substances were measured by the following method.
Step 1: Preparation of a Sample Solution
About 40 mg of the sample was weighed precisely, and dissolved in a sample dilution solvent to be exactly 25 mL. • 5 mmol/L phosphate buffer/liquid chromatography acetonitrile mixture (9:1) was used as the above sample dilution solvent was used. Herein, water: 0.05 mol/L sodium dihydrogen phosphate test solution: 0.05 mol/L disodium hydrogen phosphate reagent mixture=18:1:1 (pH is about 7.1) was used as a phosphate buffer. Step 2: HPLC Measurement of Related Substances
The above sample solution was measured by liquid chromatography under the following test condition to measure peak areas of the compound (IA) and its related substances by the automatic integration method.
• Column: YMC-UltraHT Pro C18, φ2.0×100 mm, 2 μm, YMC • Column temperature: 35° C. • UV detection wavelength: 261 nm • Mobile phase: [A] […]
• Flow rate: 0.5 mL per minute (a retention time of the compound (IA) about 5 minutes) The amount of related substances in the sample was determined by using the following formula. […]
The above standard solution and sample solution was measured by liquid chromatography under the following test condition to determine a peak area of the compound (IA) by an automatic integration method. […]
The content of related substances in the sample was determined using the following formula. […]

[5] = Solubility of sodium salt in various aqueous media
Description: To anisole (1.54 L) cooling in dry ice-ethanol bath was added aluminium chloride (495.4 g, 3.71 mol) followed by dichloromethane. 610 g of the crude product containing the compound 8 obtained by Step 1 was dissolved in a mixed solution of dichloromethane (0.51 L) and anisole (1.03 L) and spent 1 hour adding dropwise to the above aluminium chloride solution re-cooling to −40° C. The container used for the dropwise was washed with a mixed solution of dichloromethane (0.36 L) and anisole (0.51 L) and the wash fluid was added to the reaction solution. The reaction solution was stirred at −20° C. for 2 hours, and added to a mixed solution of ethanol (7.1 L), 1 mol/L hydrochloric acid (7.1 L) while stirring under cooling in ice-bath. The mixed solution was stirred for 30 minutes under ice-cooling, dichloromethane (5.14 L) and saturated brine (257 mL) was added, the separated aqueous layer was washed with dichloromethane (5.14 L). The organic layer was extracted with a mixture of water (2.57 L) and saturated brine (100 mL), and the separated aqueous layer was combined with the previous aqueous layer. The aqueous layer was stirred under cooling in ice-bath, and 2 mol/L sodium hydroxide aqueous solution was added to adjust pH to 1.5 and the solution was left to stand. The aqueous layer was concentrated and purified by HP20SS column (eluent: 13% acetonitrile water). Sodium bicarbonate (8.75 g) was added to the collected fractions containing the target product and the resulting solution was concentrated under reduced pressure until 500 mL. The solution was diluted by adding water (1.6 L) and filtered with cotton plug, and then the filtrate was lyophilized to yield the compound 9 (77.8 g). • Elemental analysis: (calculated as C30H33ClN7O10S2Na 4.5H2O) • Calculated: C; 42.13, H; 4.95, N; 11.46, S; 7.50, Cl; 4.14, Na; 2.69(%) • Measured: C; 42.22, H; 4.88, N; 11.24, S; 7.01, Cl; 4.04, Na; 2.74(%) The solubility of the obtained compound 9 in various aqueous medium (water for injection, saline, dextrose solution) was all 100 mg/mL or more, and they are very high solubility.

pKa1 [1]: 4.2
pKa2 [1]: 7.2
solubility in water [2]: very low
Compound: CC(C)(O/N=C(\C(=O)N[C@@H]1C(=O)N2C(C(=O)[O-])=C(C[N+]3(CCNC(=O)c4ccc(O)c(O)c4Cl)CCCC3)CS[C@H]12)c1csc(N)n1)C(=O)O (stereo in doubt) [compound (IA)]

Increased amount of water (%) ([3]; Relative humidity 0% RH, relative to type I crystal at 0% RH): 0.00%
Increased amount of water (%) ([3]; Relative humidity 5% RH, relative to 0% RH): 3.33%
Increased amount of water (%) ([3]; Relative humidity 10% RH, relative to 0% RH): 5.26%
Increased amount of water (%) ([3]; Relative humidity 15% RH, relative to 0% RH): 7.70%
Increased amount of water (%) ([3]; Relative humidity 20% RH, relative to 0% RH): 10.53%
Increased amount of water (%) ([3]; Relative humidity 25% RH, relative to 0% RH): 11.67%
Increased amount of water (%) ([3]; Relative humidity 30% RH, relative to 0% RH): 12.28%
Increased amount of water (%) ([3]; Relative humidity 35% RH, relative to 0% RH): 12.75%
Increased amount of water (%) ([3]; Relative humidity 40% RH, relative to 0% RH): 13.16%
Increased amount of water (%) ([3]; Relative humidity 45% RH, relative to 0% RH): 13.54%
Increased amount of water (%) ([3]; Relative humidity 50% RH, relative to 0% RH): 13.91%
Increased amount of water (%) ([3]; Relative humidity 55% RH, relative to 0% RH): 14.25%
Increased amount of water (%) ([3]; Relative humidity 60% RH, relative to 0% RH): 14.55%
Increased amount of water (%) ([3]; Relative humidity 65% RH, relative to 0% RH): 14.93%
Increased amount of water (%) ([3]; Relative humidity 70% RH, relative to 0% RH): 15.26%
Increased amount of water (%) ([3]; Relative humidity 75% RH, relative to 0% RH): 15.55%
Increased amount of water (%) ([3]; Relative humidity 80% RH, relative to 0% RH): 15.82%
Increased amount of water (%) ([3]; Relative humidity 85% RH, relative to 0% RH): 16.08%
Increased amount of water (%) ([3]; Relative humidity 90% RH, relative to 0% RH): 16.34%
Increased amount of water (%) ([3]; Relative humidity 95% RH, relative to 0% RH): 16.60%
change in appearance on storage [4]: no change in the appearance
increase of content of related substances on storage (HPLC) [4]: not observed
solid storage stability (overall) [4]: very stable
Compound: CC(C)(O/N=C(\C(=O)N[C@@H]1C(=O)N2C(C(=O)[O-])=C(C[N+]3(CCNC(=O)c4ccc(O)c(O)c4Cl)CCCC3)CS[C@H]12)c1csc(N)n1)C(=O)O [type I crystal D]

solubility ([5]; dextrose solution, saline or isotonic): ≥ 100 mg/mL
solubility ([5]; saline, saline or isotonic): ≥ 100 mg/mL
solubility ([5]; water for injection, water): ≥ 100 mg/mL
Compound: CC(C)(O/N=C(\C(=O)N[C@@H]1C(=O)N2C(C(=O)[O-])=C(C[N+]3(CCNC(=O)c4ccc(O)c(O)c4Cl)CCCC3)CS[C@H]12)c1csc(N)n1)C(=O)O [compound 9]

— patent US10004750B2, “Salt of cephalosporin derivative, its crystalline solid and a method of manufacturing thereof” (Shionogi & Co., Ltd., priority 2014, dated 2018)
